Patent US10597388B2, “Pyridazinone herbicides” (FMC CORPORATION, priority 2014, dated 2020)

Experiments:
Assay in all cases: Test D controlled growth environment herbicide test, pre- and postemergence
Format in all cases: in vivo
[1] = test system: Russian thistle (Salsola kali)
How it was run: (§1)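 Species sown in silt loam and sprayed preemergence, or grown in peat-based medium to 2–18 cm (1- to 4-leaf stage) and sprayed postemergence, with compounds in non-phytotoxic solvent plus surfactant. Visual injury scored versus controls after 14–21 d in a controlled environment, 0 (no effect) to 100 (complete control).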

[2] = test system: barley, spring (spring barley, Hordeum vulgare)
How it was run: as §1

[3] = test system: bluegrass (annual bluegrass, Poa annua)
How it was run: as §1

[4] = test system: buckwheat, wild (wild buckwheat, Polygonum convolvulus)
How it was run: as §1

[5] = test system: canarygrass (Phalaris minor)
How it was run: as §1

[6] = test system: deadnettle (henbit deadnettle, Lamium amplexicaule)
How it was run: as §1

[7] = test system: field violet (Viola arvensis)
How it was run: as §1

[8] = test system: galium (catchweed bedstraw, Galium aparine)
How it was run: as §1

kochia (Kochia scoparia) = test system: kochia (Kochia scoparia)
How it was run: as §1

[9] = test system: oilseed rape (Brassica napus)
How it was run: as §1

[10] = test system: radish, wild (wild radish, Raphanus raphanistrum)
How it was run: as §1

[11] = test system: ryegrass, Italian (Italian ryegrass, Lolium multiflorum)
How it was run: as §1

[12] = test system: speedwell (bird's-eye speedwell, Veronica persica)
How it was run: as §1

[13] = Postemergence, 31 g ai/ha, scale 0 to 100 (0 no effect, 100 complete control)
[14] = Postemergence, 125 g ai/ha, visual rating on scale 0 (no effect) to 100 (complete control), 14 to 21 d
[15] = Postemergence, 250 g ai/ha, scale 0 to 100 (0 no effect, 100 complete control)
[16] = Preemergence, 125 g ai/ha, scale 0 to 100 (0 no effect, 100 complete control)
[17] = Preemergence, 250 g ai/ha, scale 0 to 100, 0 no effect, 100 complete control
[18] = postemergence, 62 g ai/ha, scale 0 to 100, 0 no effect, 100 complete control
[19] = Preemergence, 62 g ai/ha, scale 0 to 100 (0 no effect, 100 complete control)

SMILES: CCCC(=O)Oc1c(C)nn(C)c(=O)c1-c1c(C)sc2ccc(C)cc12 [Compound 105]
- Russian Thistle plant response rating [1, 13]: 40
- Plant response rating, Russian Thistle [1, 14]: 50
- Plant response rating, Russian Thistle [1, 15]: 50
- Plant response rating (scale of 0 to 100), Russian Thistle ([1]; Preemergence, 31 g ai/ha): 0
- Plant response rating (scale of 0 to 100), Russian Thistle ([1]; Preemergence, 62 g ai/ha): 60
- Plant response rating, Russian Thistle [1, 16]: 70
- Plant response rating, Russian Thistle [1, 17]: 90
- Plant response rating, Russian Thistle [1, 18]: 45
- Barley, Spring plant response rating [2, 13]: 0
- Plant response rating, Barley, Spring [2, 14]: 10
- Plant response rating, Barley, Spring [2, 15]: 15
- Plant response rating (scale of 0 to 100), Barley, Spring ([2]; Preemergence, 31 g ai/ha): 0
- Plant response rating, Barley, Spring [2, 19]: 0
- Plant response rating, Barley, Spring [2, 16]: 0
- Plant response rating, Barley, Spring [2, 17]: 20
- Plant response rating, Barley, Spring [2, 18]: 5
- Bluegrass plant response rating [3, 13]: 10
- Plant response rating, Bluegrass [3, 14]: 20
- Plant response rating, Bluegrass [3, 15]: 25
- Plant response rating (scale of 0 to 100), Bluegrass ([3]; Preemergence, 31 g ai/ha): 25
- Plant response rating, Bluegrass [3, 19]: 30
- Plant response rating, Bluegrass [3, 16]: 60
- Plant response rating, Bluegrass [3, 17]: 75
- Plant response rating, Bluegrass [3, 18]: 10
- Buckwheat, Wild plant response rating [4, 13]: 65
- Plant response rating, Buckwheat, Wild [4, 14]: 100
- Plant response rating, Buckwheat, Wild [4, 15]: 100
- Plant response rating (scale of 0 to 100), Buckwheat, Wild ([4]; Preemergence, 31 g ai/ha): 15
- Plant response rating, Buckwheat, Wild [4, 19]: 5
- Plant response rating, Buckwheat, Wild [4, 16]: 5
- Plant response rating, Buckwheat, Wild [4, 17]: 25
- Plant response rating, Buckwheat, Wild [4, 18]: 95
- Canarygrass plant response rating [5, 13]: 40
- Plant response rating, Canarygrass [5, 14]: 75
- Plant response rating, Canarygrass [5, 15]: 80
- Plant response rating (scale of 0 to 100), Canarygrass ([5]; Preemergence, 31 g ai/ha): 85
- Plant response rating (scale of 0 to 100), Canarygrass ([5]; Preemergence, 62 g ai/ha): 95
- Plant response rating, Canarygrass [5, 16]: 95
- Plant response rating, Canarygrass [5, 17]: 98
- Plant response rating, Canarygrass [5, 18]: 50
- Deadnettle plant response rating [6, 13]: 10
- Plant response rating, Deadnettle [6, 14]: 20
- Plant response rating, Deadnettle [6, 15]: 30
- Plant response rating (scale of 0 to 100), Deadnettle ([6]; Preemergence, 62 g ai/ha): 10
- Plant response rating, Deadnettle [6, 16]: 15
- Plant response rating, Deadnettle [6, 17]: 65
- Plant response rating, Deadnettle [6, 18]: 10
- Field Violet plant response rating [7, 13]: 85
- Plant response rating, Field Violet [7, 14]: 95
- Plant response rating, Field Violet [7, 15]: 100
- Plant response rating (scale of 0 to 100), Field Violet ([7]; Preemergence, 31 g ai/ha): 100
- Plant response rating (scale of 0 to 100), Field Violet ([7]; Preemergence, 62 g ai/ha): 100
- Plant response rating, Field Violet [7, 16]: 100
- Plant response rating, Field Violet [7, 17]: 100
- Plant response rating, Field Violet [7, 18]: 90
- Galium plant response rating [8, 13]: 85
- Plant response rating, Galium [8, 14]: 95
- Plant response rating, Galium [8, 15]: 100
- Plant response rating (scale of 0 to 100), Galium ([8]; Preemergence, 31 g ai/ha): 80
- Plant response rating (scale of 0 to 100), Galium ([8]; Preemergence, 62 g ai/ha): 95
- Plant response rating, Galium [8, 16]: 85
- Plant response rating, Galium [8, 17]: 100
- Plant response rating, Galium [8, 18]: 95
- Kochia plant response rating (kochia (Kochia scoparia); [13]): 85
- Plant response rating, Kochia (kochia (Kochia scoparia); [14]): 95
- Plant response rating, Kochia (kochia (Kochia scoparia); [15]): 100
- Plant response rating (scale of 0 to 100), Kochia (kochia (Kochia scoparia); Preemergence, 31 g ai/ha): 10
- Plant response rating (scale of 0 to 100), Kochia (kochia (Kochia scoparia); Preemergence, 62 g ai/ha): 50
- Plant response rating, Kochia (kochia (Kochia scoparia); [16]): 95
- Plant response rating, Kochia (kochia (Kochia scoparia); [17]): 100
- Plant response rating, Kochia (kochia (Kochia scoparia); [18]): 95
- Oilseed Rape plant response rating [9, 13]: 0
- Plant response rating, Oilseed Rape [9, 14]: 25
- Plant response rating, Oilseed Rape [9, 15]: 60
- Plant response rating (scale of 0 to 100), Oilseed Rape ([9]; Preemergence, 31 g ai/ha): 55
- Plant response rating (scale of 0 to 100), Oilseed Rape ([9]; Preemergence, 62 g ai/ha): 60
- Plant response rating, Oilseed Rape [9, 16]: 50
- Plant response rating, Oilseed Rape [9, 17]: 50
- Plant response rating, Oilseed Rape [9, 18]: 15
- Radish, Wild plant response rating [10, 13]: 5
- Plant response rating, Radish, Wild [10, 14]: 20
- Plant response rating, Radish, Wild [10, 15]: 70
- Plant response rating (scale of 0 to 100), Radish, Wild ([10]; Preemergence, 62 g ai/ha): 15
- Plant response rating, Radish, Wild [10, 16]: 35
- Plant response rating, Radish, Wild [10, 17]: 55
- Plant response rating, Radish, Wild [10, 18]: 15
- Ryegrass, Italian plant response rating [11, 13]: 75
- Plant response rating, Ryegrass, Italian [11, 14]: 90
- Plant response rating, Ryegrass, Italian [11, 15]: 95
- Plant response rating (scale of 0 to 100), Ryegrass, Italian ([11]; Preemergence, 31 g ai/ha): 85
- Plant response rating (scale of 0 to 100), Ryegrass, Italian ([11]; Preemergence, 62 g ai/ha): 90
- Plant response rating, Ryegrass, Italian [11, 16]: 95
- Plant response rating, Ryegrass, Italian [11, 17]: 98
- Plant response rating, Ryegrass, Italian [11, 18]: 85
- Speedwell plant response rating [12, 13]: 45
- Plant response rating, Speedwell [12, 14]: 65
- Plant response rating, Speedwell [12, 15]: 75
- Plant response rating, Speedwell [12, 18]: 50
